Experimental data taken from ChEMBL document CHEMBL5380814, “Targeting Receptor-Interacting Protein Kinase 1 by Novel Benzothiazole Derivatives: Treatment of Acute Lung Injury through the Necroptosis Pathway” (J Med Chem, 2023).
Active and inactive are the calls of the source. The rule behind the calls is not given here.

Columns and labels:
[1] = test system: HT-29; experiment: Anti-necroptotic activity in human HT-29 cells assessed as protection against human TNFalpha/Smac mimetic induced necroptosis preincubated with compound upto 10 uM for 16 to 24 hrs followed by TS stimulation for 36 hrs measured by cell-titre glo luminescent cell viability assay; assay type: functional, cell-based; conditions: time 52-60 hrs
[2] = molecular target: Receptor-interacting serine/threonine-protein kinase 3 (Homo sapiens, UniProt Q9Y572); experiment: Inhibition of RIPK3 phosphorylation in TSZ-induced human HT-29 cells assessed as blocking of TSZ-induced necrosome formation at 1 uM pretreated with compound for 2 to 6 hrs followed by TSZ stimulation for 6 hrs measured by Western analysis; assay type: cell-based; conditions: time 8-12 hrs
[3] = molecular target: T1, Receptor-interacting serine/threonine-protein kinase 1 (Homo sapiens) (UniProt Q13546); experiment: Inhibition of RIPK1 phosphorylation in TSZ-induced human HT-29 cells assessed as blocking of TSZ-induced necrosome formation at 1 uM pretreated with compound for 2 to 6 hrs followed by TSZ stimulation for 6 hrs measured by Western analysis; assay type: cell-based; conditions: time 8-12 hrs
T1 sequence (whole entry): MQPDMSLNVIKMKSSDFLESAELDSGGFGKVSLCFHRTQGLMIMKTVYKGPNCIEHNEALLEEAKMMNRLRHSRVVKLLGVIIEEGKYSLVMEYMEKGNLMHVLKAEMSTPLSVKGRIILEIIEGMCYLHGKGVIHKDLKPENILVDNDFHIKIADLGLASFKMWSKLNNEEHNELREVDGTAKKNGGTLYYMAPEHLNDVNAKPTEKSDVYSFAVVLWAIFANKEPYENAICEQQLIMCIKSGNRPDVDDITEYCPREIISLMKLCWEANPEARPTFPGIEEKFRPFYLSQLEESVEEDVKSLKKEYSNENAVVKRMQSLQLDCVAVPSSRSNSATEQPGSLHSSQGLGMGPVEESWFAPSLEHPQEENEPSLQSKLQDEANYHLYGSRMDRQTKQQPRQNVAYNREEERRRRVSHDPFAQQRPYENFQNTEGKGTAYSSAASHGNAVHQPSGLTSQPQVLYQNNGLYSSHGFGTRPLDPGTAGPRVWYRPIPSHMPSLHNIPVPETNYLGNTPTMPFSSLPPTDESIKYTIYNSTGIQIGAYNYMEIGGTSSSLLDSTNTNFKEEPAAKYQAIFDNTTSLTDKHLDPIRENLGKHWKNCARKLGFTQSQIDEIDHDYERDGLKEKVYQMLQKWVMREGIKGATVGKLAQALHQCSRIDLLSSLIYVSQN

[4] = test system: Mus musculus; experiment: In vivo anti-necrotptic activity in mTNFalpha induced C57BL/6J SIRS mouse model assessed as survival rate pretreated at 5 mg/kg, po for 1 hr followed by mTNFalpha/Z-VAD-FMK administration measured after 40 mins relative to control; assay type: functional; conditions: time 100 min, 1.667 h
[5] = test system: Mus musculus; experiment: In vivo anti-inflammatory activity in NNK induced induced C57BL/6J ALI mouse model assessed as decrease in lung IL-6 mRNA level pretreated at 25 to 100 mg/kg, ip for 1 hr followed by NNK administration; assay type: functional, organism-based; conditions: dose 25-100 mg/kg
[6] = test system: Mus musculus; experiment: In vivo anti-necrotoptic activity in NNK induced induced C57BL/6J ALI mouse model assessed as reduction in RIPK1 phosphorylation pretreated at 25 to 100 mg/kg, ip for 1 hr followed by NNK administration; assay type: functional, organism-based; conditions: dose 25-100 mg/kg

Chain of Receptor-interacting serine/threonine-protein kinase 3 (Q9Y572 whole entry, looked up): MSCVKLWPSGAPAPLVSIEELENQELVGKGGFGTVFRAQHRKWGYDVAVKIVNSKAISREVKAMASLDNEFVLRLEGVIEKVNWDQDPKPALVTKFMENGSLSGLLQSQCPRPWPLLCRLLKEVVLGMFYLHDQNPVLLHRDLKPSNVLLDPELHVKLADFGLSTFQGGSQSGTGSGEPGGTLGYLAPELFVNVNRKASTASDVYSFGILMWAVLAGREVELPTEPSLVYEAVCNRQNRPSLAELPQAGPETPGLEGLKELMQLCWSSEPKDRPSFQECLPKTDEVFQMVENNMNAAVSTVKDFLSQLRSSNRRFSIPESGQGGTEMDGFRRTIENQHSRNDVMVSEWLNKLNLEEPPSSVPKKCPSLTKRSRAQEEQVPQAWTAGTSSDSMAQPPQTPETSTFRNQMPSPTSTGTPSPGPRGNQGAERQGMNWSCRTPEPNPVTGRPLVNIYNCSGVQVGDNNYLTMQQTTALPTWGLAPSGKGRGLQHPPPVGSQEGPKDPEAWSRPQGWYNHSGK

Question: What does the source list for `CCS(=O)(=O)NC1CCC(C(=O)Nc2nc3cc(F)c(Oc4ccc(F)c(NC(=O)Cc5cccc(C(F)(F)F)c5)c4)cc3s2)CC1` (stereo unspecified)?
Answer: Activity [1]: inactive; inhibition [2]: Active; inhibition [3]: Active; Activity [4]: 30%; Activity [5]: Active; Activity [6]: Active
